Test results as given in patent publication US11807625B2, “Capsid inhibitors for the prevention of HIV” (Gilead Sciences, Inc., priority 2019, dated 2023).
Where two headings read alike, the source gives them in different places.

Assay: PK of compound of Formula (Ia) after single subcutaneous dose of solution formulations in beagle dogs
Format: in vivo
Description: Formulations containing the compound of Formula (Ia), or a pharmaceutically acceptable salt thereof, were prepared as solutions and optionally administered subcutaneously or intramuscularly to rats, rabbits, and/or dogs.
A solution of about 400 mg/mL of the compound of Formula (Ia) having 17.00 w/w % water, 36.40 w/w % PEG 300, 35.20 w/w % of a sodium salt of a compound of Formula (Ia), 5.00 w/w % ethanol, and 6.40 w/w % poloxamer 188 was prepared. The solution was administered subcutaneously to male beagle dogs at a dose level of about 12 mg/kg and male Wistar Han rats at a dose level of about 50 mg/kg. The pharmacokinetic profiles were determined, and the results for dogs are summarized in Table and Table, while the results for rats are summarized in Table and Table below.
A solution of about 500 mg/mL of the compound of Formula (Ia) having 14.06 w/w % water, 30.12 w/w % PEG 300, […] of a sodium salt of a compound of Formula (Ia), 5.00 w/w % ethanol, and 6.40 w/w % poloxamer 188 was prepared. The solution was administered subcutaneously to male beagle dogs at a dose level of about 12 mg/kg and male Wistar Han rats at a dose level of about 50 mg/kg. The pharmacokinetic profiles were determined, and the results for dogs are summarized in Table and Table, while the results for rats are summarized in Table and Table below.
A solution of about 300 mg/mL of the compound of Formula (Ia) having 23.33 w/w % water, 48.99 w/w % PEG 300, 26.47 w/w % of a sodium salt of a compound of Formula (Ia), and 1.21 w/w % poloxamer 188 was prepared. The solution was administered subcutaneously to male beagle dogs at a dose level of about 6 mg/kg and male Wistar Han rats at a dose level of about 50 mg/kg. The pharmacokinetic profiles were determined, and the results for dogs are summarized in Table and Table, while the results for rats are summarized in Table and Table below.
A solution of about 400 mg/mL of the compound of Formula (Ia) having 18.80 w/w % water, 40.25 w/w % PEG 300, 34.38 w/w % of a sodium salt of a compound of Formula (Ia), 5.00 w/w % ethanol, and 1.57 w/w % poloxamer 188 was prepared. The solution was administered subcutaneously to male beagle dogs at a dose level of about 12 mg/kg and male Wistar Han rats at a dose level of about 50 mg/kg. The pharmacokinetic profiles were determined, and the results for dogs are summarized in Table and Table, while the results for rats are summarized in Table and Table below.
A solution of about 500 mg/mL of the compound of Formula (Ia) having 16.29 w/w % water, 34.88 w/w % PEG 300, 41.92 w/w % of a sodium salt of a compound of Formula (Ia), 5.00 w/w % ethanol, and 1.91 w/w % poloxamer 188 was prepared. The solution was administered subcutaneously to male beagle dogs at a dose level of about 12 mg/kg and male Wistar Han rats at a dose level of about 50 mg/kg. The pharmacokinetic profiles were determined, and the results for dogs are summarized in Table and Table, while the results for rats are summarized in Table and Table below.
A solution of about 400 mg/mL of the compound of Formula (Ia) having 20.90 w/w % water, 44.72 w/w % PEG 300, and 34.38 w/w % of a sodium salt of a compound of Formula (Ia) was prepared. The solution was administered subcutaneously to male beagle dogs at a dose level of about 12 mg/kg and male Wistar Han rats at a dose level of about 50 mg/kg. The pharmacokinetic profiles were determined, and the results for dogs are summarized in Table and Table, while the results for rats are summarized in Table and Table below.
A solution of about 400 mg/mL of the compound of Formula (Ia) having 19.90 w/w % water, 42.59 w/w % PEG 300, 34.38 w/w % of a sodium salt of a compound of Formula (Ia), and 3.13 w/w % poloxamer 188 was prepared. The solution was administered subcutaneously to male beagle dogs at a dose level of about 12 mg/kg and male Wistar Han rats at a dose level of about 50 mg/kg. […]

[1] = male, beagle, dog, plasma, sc, 6 mg/kg, individual dogs, SC 6 mg/kg, solution V, 300 mg/mL
[2] = male, beagle, dog, plasma, sc, 6 mg/kg, mean, n = 3 dogs, SC 6 mg/kg, solution V, 300 mg/mL
[3] = male, beagle, dog, plasma, sc, 6 mg/kg, mean ± SD, n = 3 dogs, SC 6 mg/kg, solution V, 300 mg/mL

CC(C)(C#Cc1ccc(-c2ccc(Cl)c3c(NS(C)(=O)=O)nn(CC(F)(F)F)c23)c([C@H](Cc2cc(F)cc(F)c2)NC(=O)Cn2nc(C(F)(F)F)c3c2C(F)(F)[C@@H]2C[C@H]32)n1)S(C)(=O)=O [compound of Formula (Ia)]
Plasma concentration (beagle dogs, SC 12 mg/kg, 400 mg/mL solution W (5.00% ethanol, 1.57% poloxamer 188), 1.00 h, animals #1-#3): BLQ
concentration at 3 h [1]: 2.26 nM
concentration at 3 h (male, beagle, dog, plasma, sc, 6 mg/kg, mean (dog #2 BLQ), SC 6 mg/kg, solution V, 300 mg/mL): 2.75 nM
concentration at 8 h [1]: 8.26 nM
concentration at 8 h [2]: 10.4 nM
concentration at 24 h [1]: 22.3 nM
concentration at 24 h [2]: 23.5 nM
concentration at 48 h [1]: 37.1 nM
concentration at 48 h [2]: 31.5 nM
concentration at 72 h [1]: 32.8 nM
concentration at 72 h [2]: 31.3 nM
concentration at 96 h [1]: 39.5 nM
concentration at 96 h [2]: 32.6 nM
concentration at 168 h [1]: 41.8 nM
concentration at 168 h [2]: 39.2 nM
concentration at 336 h [1]: 99.2 nM
concentration at 336 h [2]: 129 nM
concentration at 504 h [1]: 122 nM
concentration at 504 h [2]: 151 nM
concentration at 672 h [1]: 95.3 nM
concentration at 672 h [2]: 122 nM
concentration at 840 h [1]: 53.3 nM
concentration at 840 h [2]: 58.9 nM
concentration at 1008 h [1]: 29.1 nM
concentration at 1008 h [2]: 30.2 nM
concentration at 1344 h [1]: 26.9 nM
concentration at 1344 h [2]: 23.8 nM
concentration at 1680 h [1]: 13.7 nM
concentration at 1680 h [2]: 12.3 nM
concentration at 2016 h (male, beagle, dog, plasma, sc, 6 mg/kg, 2016 h, mean, n = 3 dogs, SC 6 mg/kg, solution V, 300 mg/mL): 8.5 nM
concentration at 2352 h [1]: 4.5 nM
concentration at 2352 h [2]: 4.7 nM
concentration at 2688 h [1]: 2.1 nM
concentration at 2688 h [2]: 2.7 nM
concentration at 3024 h [1]: 2.5 nM
concentration at 3024 h [2]: 2.3 nM
concentration at 3360 h [1]: 1.5 nM
concentration at 3360 h [2]: 1.3 nM
AUC(0-inf) [3]: 113 ± 12 µM·h
Cmax [3]: 155 ± 30 nM
Tmax [3]: 18.7 ± 4.04 days
half-life [3]: 25.5 days
AUC(0-t) (male, beagle, dog, plasma, sc, 6 mg/kg, mean ± SD, n = 3 dogs, SC 6 mg/kg, solution V, 300 mg/mL, read-out: AUC0-24 h): 0.304 ± 0.028 µM·h
AUC(0-t) (male, beagle, dog, plasma, sc, 6 mg/kg, mean ± SD, n = 3 dogs, SC 6 mg/kg, solution V, 300 mg/mL, read-out: AUC0-168 h): 5.07 ± 0.5 µM·h
AUC(0-t) (male, beagle, dog, plasma, sc, 6 mg/kg, mean ± SD, n = 3 dogs, SC 6 mg/kg, solution V, 300 mg/mL, read-out: AUC0-672 h): 65.6 ± 9.9 µM·h
AUC(0-t) (male, beagle, dog, plasma, sc, 6 mg/kg, mean ± SD, n = 3 dogs, SC 6 mg/kg, solution V, 300 mg/mL, read-out: AUC0-1344 h): 97.4 ± 12.7 µM·h
AUC(0-t) (male, beagle, dog, plasma, sc, 6 mg/kg, mean ± SD, n = 3 dogs, SC 6 mg/kg, solution V, 300 mg/mL, read-out: AUC0-1680 h): 103 ± 12 µM·h
